We go through 1 compound from US5932227A, “Percutaneously administrable base composition and drug composition prepared therefrom” (Hisamitsu Pharmaceutical Co., Inc., priority 1992, dated 1999).

The data set in a line: concentration in blood of tulobuterol upon administering to a rat, compared with oral administration. Format: in vivo. Conditions: oral 10 mg/kg.

Structures are written as SMILES.

Consider `CC(C)(C)NCC(O)c1ccccc1Cl` (centres unmarked) [tulobuterol], for which, for the setting “blood”, the AUC (commonly concentration integrated over time) was found to be 91000 ng·h/mL. Also, the bioavailability (in general, the share of a dose that reaches the circulation, judged against a reference dose that is usually intravenous) (blood) turned out to be 5.37%. The “concentration in blood of tulobuterol” value came to 227.0 (0.25 hr); 37.7 (0.5 hr); 17.1 (1 hr); 4.3 (2 hr); 0.8 (4 hr); 0 ng/mL (6 hr). Moreover, the concentration in blood of tulobuterol runs as follows: (8 hr) 0 ng/mL; (12 hr) 0 ng/mL; (24 hr) 0 ng/mL.
